In US8513271B2, “Pyrimidine compounds as delta opioid receptor modulators” (Janssen Pharmaceutica, NV, priority 2009, dated 2013):
“And” between values parts separate entries of the source, which are not always exact repeats. Equal values may be shown once. Read-outs that look alike come from different tables or passages of the source.

Experiments:
[1] = system: acetic acid-induced abdominal stretches; test: Mouse graded abdominal irritant test (GrAIT); assay type: in vivo; details: 10% Solutol, 30 min pretreatment
mu opioid receptor = molecular target: T1, mu opioid receptor (Rattus norvegicus, UniProt P33535); test: Rat brain mu opioid receptor binding assay; details: rat forebrain, [3H]DAMGO ligand
T1 construct: the forebrains were homogenized in Tris buffer in a Teflon®-glass homogenizer; from tissue; host or cells: forebrain of male Wistar rats, particulate (membrane) preparation

delta opioid receptor [2] = molecular target: T2, delta opioid receptor (Rattus norvegicus, UniProt P33533); test: Rat brain delta opioid receptor binding assay; details: rat forebrain, [3H]naltrindole ligand
T2 construct: the forebrains were homogenized in Tris buffer in a Teflon®-glass homogenizer; from tissue; host or cells: forebrain of male Wistar rats, particulate (membrane) preparation

[3] = molecular target: hMOR (mu opioid receptor) (Homo sapiens, UniProt P35372); test: [35S]GTPγS binding assays in CHO-hMOR cell membranes (mu opioid functional assay); assay type: biochemical; details: for inhibition at 10 µM: read-out: GTPγS μ-opioid receptor % Inh @10 μM
[4] = system: CFA-induced paw radiant heat hypersensitivity; test: CFA-induced paw radiant heat hypersensitivity; assay type: in vivo, rat; details: for inhibition in vivo at 100 mg/kg / ED50: po; for maximum % reversal: time not printed (last time point 100 min)
delta opioid receptor [5] = molecular target: T3, delta opioid receptor (Mus musculus, UniProt P32300); test: [35S]GTPγS binding assay in NG108-15 cell membranes (delta opioid functional assay), 200 nM screen; assay type: biochemical; details: for EC50: GTPγS δ-opioid receptor EC50 (μM); for GTPγS δ-opioid receptor Rel Efficacy: relative efficacy from dose response
T3 construct: NG108-15 cell membranes were purchased from Applied Cell Sciences (Rockville, Md.); host or cells: NG108-15 cell membranes

delta opioid receptor [6] = molecular target: T3, delta opioid receptor; test: NG108-15, 24-well delta opioid receptor binding assay
[7] = δ-binding (Naltrindole ligand) Ki
[8] = Rattus norvegicus, 1 h, read-out: maximum % reversal @ time (min), rat, 100 mg/kg p.o., 0.5% HPMC, @ 60 min
[9] = Rattus norvegicus, 3 h, read-out: maximum % reversal @ time (min), rat, 100 mg/kg p.o., 0.5% HPMC, @ 180 min, Algos (contract lab) study
[10] = NG108-15 cell membranes, averages if tested more than once

T3 sequence (P32300 whole entry): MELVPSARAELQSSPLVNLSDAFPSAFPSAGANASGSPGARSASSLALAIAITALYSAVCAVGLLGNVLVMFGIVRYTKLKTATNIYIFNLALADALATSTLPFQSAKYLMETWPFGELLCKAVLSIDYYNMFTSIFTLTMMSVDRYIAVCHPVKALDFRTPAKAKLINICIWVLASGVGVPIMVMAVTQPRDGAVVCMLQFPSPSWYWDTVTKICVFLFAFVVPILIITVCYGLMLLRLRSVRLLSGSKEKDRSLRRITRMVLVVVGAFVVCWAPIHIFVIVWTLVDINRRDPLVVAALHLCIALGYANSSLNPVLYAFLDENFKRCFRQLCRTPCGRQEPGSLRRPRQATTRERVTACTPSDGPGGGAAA
T1 sequence (P33535 whole entry): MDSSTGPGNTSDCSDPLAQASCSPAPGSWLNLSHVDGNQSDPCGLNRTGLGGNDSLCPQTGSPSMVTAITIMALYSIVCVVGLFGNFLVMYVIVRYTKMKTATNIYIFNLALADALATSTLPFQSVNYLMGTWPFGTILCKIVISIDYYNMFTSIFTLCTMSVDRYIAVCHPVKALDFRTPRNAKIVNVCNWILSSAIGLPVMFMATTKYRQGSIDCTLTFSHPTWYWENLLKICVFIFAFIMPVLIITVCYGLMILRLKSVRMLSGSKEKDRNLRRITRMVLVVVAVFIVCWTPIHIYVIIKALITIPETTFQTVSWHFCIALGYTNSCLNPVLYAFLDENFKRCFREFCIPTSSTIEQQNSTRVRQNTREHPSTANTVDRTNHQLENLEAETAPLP
Chain of hMOR (mu opioid receptor) (P35372 whole entry, looked up): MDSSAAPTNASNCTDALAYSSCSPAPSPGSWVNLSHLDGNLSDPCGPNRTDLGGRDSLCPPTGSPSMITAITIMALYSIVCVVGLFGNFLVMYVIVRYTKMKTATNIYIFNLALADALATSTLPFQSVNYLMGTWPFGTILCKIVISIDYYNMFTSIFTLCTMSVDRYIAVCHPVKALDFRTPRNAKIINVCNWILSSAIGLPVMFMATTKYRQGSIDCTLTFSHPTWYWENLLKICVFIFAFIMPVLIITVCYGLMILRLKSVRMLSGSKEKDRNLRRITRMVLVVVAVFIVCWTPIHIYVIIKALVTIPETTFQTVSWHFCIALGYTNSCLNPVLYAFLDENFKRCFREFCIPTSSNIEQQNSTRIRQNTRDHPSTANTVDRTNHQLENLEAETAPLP
T2 sequence (P33533 whole entry): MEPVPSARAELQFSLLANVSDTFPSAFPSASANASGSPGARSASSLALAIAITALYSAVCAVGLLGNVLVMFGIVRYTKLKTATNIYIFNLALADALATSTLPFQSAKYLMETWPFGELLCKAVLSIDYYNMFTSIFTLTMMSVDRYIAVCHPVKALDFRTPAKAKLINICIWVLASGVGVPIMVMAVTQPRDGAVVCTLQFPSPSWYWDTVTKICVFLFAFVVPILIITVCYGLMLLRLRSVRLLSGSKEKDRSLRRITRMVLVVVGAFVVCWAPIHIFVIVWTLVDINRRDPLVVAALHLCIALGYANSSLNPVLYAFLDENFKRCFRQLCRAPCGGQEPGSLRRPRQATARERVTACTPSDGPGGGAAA

## COc1ccc(Oc2nc(-c3cnc4ccccc4c3)ncc2NC[C@@H]2CCCN2)cc1 [Cpd 20]
[1]; 30 mg/kg s.c.
  # abdominal stretches (compound): 19.8
Mu opioid receptor; read-out: μ-binding Ki
  Ki: 146 nM
Delta opioid receptor [2]; [7]
  Ki: 4.93 nM

## COc1ccc(Oc2nc(-c3ccc(F)nc3)ncc2NC[C@@H]2CCCN2)cc1 [Cpd 25]
[1]; 30 mg/kg s.c.
  # abdominal stretches (compound): 12.3
Mu opioid receptor; read-out: μ-binding Ki
  Ki: 616 nM
Delta opioid receptor [2]; [7]
  Ki: 0.308 nM

## COc1ccc(Oc2nc(-c3cccnc3OC)ncc2NC[C@@H]2CCCN2)cc1 [Cpd 26]
[1]; 30 mg/kg s.c.
  # abdominal stretches (compound): 16.7
Mu opioid receptor; read-out: μ-binding Ki
  Ki: 4050 nM
Delta opioid receptor [2]; [7]
  Ki: 8 nM

## COc1ccc(Oc2nc(-c3ccc(OC)nc3)ncc2NC[C@@H]2CCCN2)cc1 [Cpd 22]
[1]; 30 mg/kg s.c.
  # abdominal stretches (compound): 18.6 and 16.0
[1]; 100 mg/kg s.c.
  # abdominal stretches (compound): 17.4
[1]; 300 mg/kg s.c.
  # abdominal stretches (compound): 20.3
Mu opioid receptor; read-out: μ-binding Ki
  Ki: 1100 nM
Delta opioid receptor [2]; [7]
  Ki: 0.909 nM

## COc1ccc(Oc2nc(-c3cncc(C#N)c3)ncc2NC[C@@H]2CCCN2)cc1 [Cpd 69]
[3]
  EC50: > 10000 nM
  inhibition at 10 µM: 22.8%
[4]; [8]
  inhibition in vivo at 100 mg/kg: 10.1%
[4]; Rattus norvegicus, 1 h, read-out: maximum % reversal @ time (min), rat, 100 mg/kg p.o., 0.5% HPMC, @ 60 min, Algos (contract lab) study
  inhibition in vivo at 100 mg/kg: 55.7%
[4]; [9]
  inhibition in vivo at 100 mg/kg: 65.4%
Mu opioid receptor; μ-binding Ki
  Ki: 196 nM
Delta opioid receptor [5]; [10]
  EC50: 0.0085 µM
Delta opioid receptor [5]; NG108-15 cell membranes
  GTPγS δ-opioid receptor Rel Efficacy: 1.004
Delta opioid receptor [6]
  Ki: 0.139 nM
Delta opioid receptor [2]; [7]
  Ki: 4.1 nM

## COc1ccc(Oc2nc(-c3cccnc3)ncc2NC[C@@H]2CCCN2)cc1 [Cpd 8]
[3]
  inhibition at 10 µM: 2.48%
[4]; [8]
  inhibition in vivo at 100 mg/kg: 46.5%
[4]; [9]
  inhibition in vivo at 100 mg/kg: 75.1%
[4]; rat, 30 mg/kg p.o., 0.5% HPMC
  maximum % reversal: 49.0%
[4]; rat, 100 mg/kg p.o., 0.5% HPMC
  maximum % reversal: 64.8%
[1]; 30 mg/kg s.c.
  # abdominal stretches (compound): 18.9
Mu opioid receptor; μ-binding Ki
  Ki: 42.8 nM
Delta opioid receptor [5]; [10]
  EC50: 0.0681 µM
Delta opioid receptor [5]; read-out: GTPγS δ-opioid receptor % Inh @10 μM
  inhibition at 10 µM: 23.6%
Delta opioid receptor [5]; NG108-15 cell membranes
  GTPγS δ-opioid receptor Rel Efficacy: 0.848
Delta opioid receptor [2]; [7]
  Ki: 6.19 nM

## COc1ccc(Oc2nc(-c3cncc(SC)c3)ncc2NC[C@@H]2CCCN2)cc1 [Cpd 107, [4-(4-Methoxy-phenoxy)-2-(5-methylsulfanyl-pyridin-3-yl)-pyrimidin-5-yl]-pyrrolidin-2-(S)-ylmethyl-amine]
[3]
  EC50: 5100 nM
  inhibition at 10 µM: 4.05%
[4]; Rattus norvegicus, 2 h
  ED50: 32 mg/kg
[4]; Rattus norvegicus, 2 h, read-out: maximum % reversal @ time (min), rat, 100 mg/kg p.o., 0.5% HPMC, @ 120 min
  inhibition in vivo at 100 mg/kg: 52.8%
Mu opioid receptor; μ-binding Ki
  Ki: 39 nM
Delta opioid receptor [5]; 200 nM test compound, relative to calculated max of SNC80 dose response curve, NG108-15 cell membranes, averages if tested more than once
  GTPγS δ-RelEfficacy @200 nM: 1.046
Delta opioid receptor [5]; [10]
  EC50: 0.0213 µM
Delta opioid receptor [5]; NG108-15 cell membranes
  GTPγS δ-opioid receptor Rel Efficacy: 0.957
Delta opioid receptor [2]; [7]
  Ki: 1 nM

## COc1ccc(Oc2nc(-c3cccnc3F)ncc2NC[C@@H]2CCCN2)cc1 [Cpd 24]
[1]; 30 mg/kg s.c.
  # abdominal stretches (compound): 16.9
Mu opioid receptor; read-out: μ-binding Ki
  Ki: 1060 nM
Delta opioid receptor [2]; [7]
  Ki: 1 nM

## COc1ccc(Oc2nc(-c3cncnc3)ncc2NC[C@@H]2CCCN2)cc1 [Cpd 23]
[4]; 2 h, rat, p.o., 0.5% HPMC, doses 10, 30, 100, 300 mg/kg, time point 120 min, read-out: ED50
  ED50: 35.4 mg/kg
[1]; 30 mg/kg s.c.
  # abdominal stretches (compound): 16.7
Mu opioid receptor; read-out: μ-binding Ki
  Ki: 214 nM
Delta opioid receptor [2]; read-out: δ-binding (Naltrindole ligand) Ki
  Ki: 1.25 nM
